Values of other authors, collected in patent publication US20200360276A1 (Aerovate Therapeutics, Inc., priority 2019, published 2020).

Assays:
[1] = relative to imatinib parent compound
[2] = relative to imatinib parent compound; remark: listed apart in the source
[3] = test system: platelet-derived growth factor receptor (PDGFR)
[4] = aqueous solution, dependence on pH

## Cc1ccc(NC(=O)c2ccc(CN3CCNCC3)cc2)cc1Nc1nccc(-c2cccnc2)n1 [N-desmethyl imatinib]
[1]
  potency: same potency as the imatinib parent compound
[2]
  half-life: increased half-life relative to the parent imatinib compound
[3]
  inhibition of PDGFR: potent inhibitor
[4]
  solubility: increases as the pH drops
